As usually defined, the IC50 is the point on the concentration scale where inhibition reaches its midpoint.

The text below walks through data of publication PMC8397425, “A Strategy to Conjugate Bioactive Fragments to Cytotoxic Diiron Bis(cyclopentadienyl) Complexes” (Organometallics, 2021).

Series [1] concerns cancer cell lines. Particulars: cited from earlier work.
Series [2] can be described thus: Octanol–water partition coefficient (shake-flask, UV–vis). Particulars: T = 21 °C. Format: physicochemical. As for the experimental part:
The solubility of the complexes in D2O was assessed using ^1H NMR spectroscopy (see Table 1 and the Experimental Section for details). […] Data from the literature for the related nonfunctionalized complexes [2′,3′]CF3SO3 are compiled in Table 1 for comparison.[11] The octanol–water partition coefficients (Log Pow) were measured using a UV–vis method and fall within the −0.2 to +1.2 range (Table 1). […] For instance, Log Pow values of 1.07 and 0.65 are obtained for the geometric isomers [9]CF3SO3 and [10]CF3SO3, respectively. […]
Determination of partition coefficients (Log P ow)
Partition coefficients ( Pow; IUPAC: K D partition constant, 7,8 defined as Pow = corg/caq, where corg and caq are the molar concentrations of the selected compound in the organic and aqueous phases, respectively, were determined by the shake-flask method and UV-Vis measurements. 9 Values of Log Pow for diiron complexes are compiled in Table 2. All the operations were carried out at 21±1 °C. De -ionised water and 1-octanol were mixed and vigorously stirred for 24 hours at room temperature to allow saturation of both phases, then separated by centrifugation and used for the following experiments. A solution of the selected Fe compound in the organic phase (V = 5 mL) was prepared and its UV-Vis spectrum was recorded. An aliquot of the solution (Vorg = 1.5 mL) was then transferred into a test tube and the aqueous phase (Vorg = Vaq = 1.5 mL) was added. The mixture was vigorously stirred for 20 minutes and the resulting emulsion was centrifuged (5000 rpm, 10’). […]
the organic phase was recorded. The procedure was repeated three times for each compound. The partition coefficient was then calculated as PPow = AorgA0,org − Aorg, where A0,org and Aorg are the absorbance values in the organic phase, respectively before and after mixing with the aqueous phase. 9 UV-Vis measurements were carried out using 1 cm PMMA cuvettes. The wavelength of the maximum absorption of each compound was used for UV-Vis quantification.

In series [3] the target is T1, COX-2 enzyme (Homo sapiens, UniProt P35354).
T1 construct: purchased Cayman Chemical Company
T1 sequence (P35354 18-604): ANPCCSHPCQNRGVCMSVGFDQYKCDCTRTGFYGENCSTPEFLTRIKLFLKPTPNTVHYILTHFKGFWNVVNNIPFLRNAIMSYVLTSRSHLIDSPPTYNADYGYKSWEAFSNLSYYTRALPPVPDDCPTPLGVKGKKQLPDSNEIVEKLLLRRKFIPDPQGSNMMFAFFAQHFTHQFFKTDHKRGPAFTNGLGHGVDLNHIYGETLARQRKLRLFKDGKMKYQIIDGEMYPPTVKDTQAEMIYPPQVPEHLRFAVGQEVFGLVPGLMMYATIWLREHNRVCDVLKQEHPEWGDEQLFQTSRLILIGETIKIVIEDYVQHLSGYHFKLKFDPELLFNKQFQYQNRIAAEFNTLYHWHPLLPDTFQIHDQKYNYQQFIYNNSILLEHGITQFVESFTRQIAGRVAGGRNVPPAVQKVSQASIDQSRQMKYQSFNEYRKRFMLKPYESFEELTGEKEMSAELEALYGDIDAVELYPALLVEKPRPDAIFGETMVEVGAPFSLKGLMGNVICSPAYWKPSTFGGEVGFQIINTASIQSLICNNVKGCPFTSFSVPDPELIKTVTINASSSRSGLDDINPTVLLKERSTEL
In words: COX-2 enzyme inhibition assay (fluorimetric). Format: biochemical. Particulars: residual enzyme activity, 25 °C, pH 8, mean ± SD. Here is the method:
Next, the possible role of the bioactive fragment in the complexes was studied.
The IC50 value was obtained using GraphPad Prism 7 software. All of the inhibitor assays were performed at least in triplicate.

Series [4] deals with Human Ovarian Carcinoma (A2780) cell line. Briefly: MTT cytotoxicity, A2780. In kind it is cell-based. Particulars: 72 h exposure, MTT, mean ± SD. From the text: (§1) Human ovarian carcinoma (A2780 and A2780cisR) cell lines were obtained from the European Collection of Cell Cultures. The Human Embryonic Kidney 293T (HEK 293T) cell line was obtained from the ATCC (Sigma, Buchs, Switzerland). Penicillin–streptomycin, RPMI 1640 GlutaMAX (where RPMI = Roswell Park Memorial Institute), and DMEM GlutaMAX media (where DMEM = Dulbecco’s modified Eagle medium) were obtained from Life Technologies, and fetal bovine serum (FBS) was obtained from Sigma. The cells were cultured in RPMI 1640 GlutaMAX (A2780 and A2780cisR) and DMEM GlutaMAX (HEK 293T) media containing 10% heat-inactivated FBS and 1% penicillin–streptomycin at 37 °C and CO2 (5%). The A2780cisR cell line was routinely treated with cisplatin (2 μM) in the media to maintain cisplatin resistance. The cytotoxicity was determined using the 3-(4,5-dimethyl-2-thiazolyl)-2,5-diphenyl-2H-tetrazolium bromide (MTT) assay.[42] Cells were seeded in flat-bottomed 96-well plates as a suspension in a prepared medium (100 μL aliquots and approximately 4300 cells/well) and preincubated for 24 h. Stock solutions of compounds were prepared in DMSO and were diluted in the medium. The solutions were sequentially diluted to give a final DMSO concentration of 0.5% and a final compound concentration range of 0–200 μM. Cisplatin was tested as a positive (0–100 μM) control. The compounds were placed in the preincubated 96-well plates in 100 μL aliquots, and the plates were incubated for a further 72 h. MTT (20 μL, 5 mg/mL in Dulbecco’s phosphate buffered saline) was placed in the cells, and the plates were incubated for a further 4 h. The culture medium was aspirated, and the purple formazan crystals, formed by the mitochondrial dehydrogenase activity of vital cells, were dissolved in DMSO (100 μL/well). The absorbance of the resulting solutions, directly proportional to the number of surviving cells, was quantified at 590 nm using a SpectroMax M5e multimode microplate reader (using SoftMax Pro software, version 6.2.2). The percentage of surviving cells was calculated from the absorbance of wells corresponding to the untreated control cells. The reported IC50 values are based on the means from two independent experiments, each comprising four tests per concentration level.

The nature of series [5]: Stability in D2O/DMSO at 37 °C by 1H NMR. In kind it is physicochemical. The settings on record: D2O/DMSO 2/1 v/v, 24 h at 37 °C. As for the experimental part: Conversely, [3–7]CF3SO3, containing either {Aryl–OCOAsp} or {Aryl-NHCOAsp} moieties, were stable under the same conditions. […] Complete conversion into the bis-hydroxide [8^2OH]^+ was achieved within 72 h. Similarly, [9,10]CF3SO3 undergo activation of the {C–Cl} bonds to give mixtures of the partially Cl/OH substituted species [9^OH]^+ and [10^OH]^+ and the fully substituted species [9^2OH]^+ and [10^2OH]^+.

The nature of series [6]: Stability in cell culture medium at 37 °C by NMR. Format: physicochemical. The settings on record: after 72 h. As for the experimental part:
Complexes [3]CF3SO3, [5]CF3SO3, and [8]CF3SO3 were selected for an evaluation of their stability in the culture medium. Compounds were dissolved in DMSO-d6, and these solutions were diluted with the cell culture medium and stored at 37 °C. According to NMR spectroscopy, progressive release of the bioactive fragment occurred over 72 h, affording [3′]^+ from [3]CF3SO3 and [5′]^+ from [5]CF3SO3 (Figures S41 and S42). […] Overall, these findings indicate that the diiron scaffold decorated with biofunctionalized vinyliminium ligands is robust in aqueous media, with a tendency to progressively release the bioactive moiety in the medium used in cytotoxicity studies.
[8]CF3SO3, after 24 h: [3']+ and chlorambucil species ([8OH]+ + [8 2OH]+) (ratio 5:2). From [8]CF3SO3, after 72 h:
[3']+ and chlorambucil species ([82OH]+) (ratio 7:2).
Determination of partition coefficients (Log P ow) […]
the organic phase was recorded. […] The partition coefficient was then calculated as PPow = AorgA0,org − Aorg, where A0,org and Aorg are the absorbance values in the organic phase, respectively before and after mixing with the aqueous phase. […] The wavelength of the maximum absorption of each compound was used for UV-Vis quantification.

In series [7] the test system is Human Embryonic Kidney 293T (HEK 293T) cell line. Briefly: MTT cytotoxicity, HEK 293T. In kind it is cell-based. Particulars: 72 h exposure, mean ± SD.
Source text: as §1

Series [8] deals with Human Ovarian Carcinoma Cisplatin Resistant (A2780cisR) cell line. In words: MTT cytotoxicity, A2780cisR. Format: cell-based. The settings on record: 72 h exposure, mean ± SD.
Source text: as §1

The test system of series [9] is Human Ovarian Carcinoma (A2780) cell line. Particulars: 72 h exposure; cited from earlier work.
Series [10] relates to Human Embryonic Kidney 293T (HEK 293T) cell line. The settings on record: 72 h exposure; cited from earlier work.
Series [11] has as its system Human Ovarian Carcinoma Cisplatin Resistant (A2780cisR) cell line. The settings on record: 72 h exposure; cited from earlier work.

Read-outs that look alike come from different tables or passages of the source. Where only a bound is given, the exact number is not on record here.

Turning to `C#CCOC(=O)c1ccccc1OC(C)=O` [ALK^A1], the “activity toward cancer cell lines” value in series [1] is reported as “absence of activity”.

Consider “[Fe2Cp2(CO)(μ-CO){μ-η^1:η^3-Cγ(3-C6H4NHC(=O)C6H4OC(=O)Me)CβHCαNMe2}]CF3SO3 [[5]CF3SO3]”, for which the “Log Pow” value in series [2] was “–0.10 ± 0.01”. Further, the half-inhibitory concentration (IC50) in series [3] is 10 ± 2 µM; in [4], 43 ± 6 µM; in series [7], 89.9 ± 0.3 µM; in series [8] it was 45 ± 1 µM. The “stability (%), residual percent of complex” value in series [5] turned out to be 69%. For the same molecule, the “dissociation of the bioactive fragment” value in series [6] was “complete dissociation”.

Consider `CC(=O)Oc1ccccc1C(=O)O` [aspirin, acetylsalicylic acid], for which the IC50 in [9], in series [10] and in [11] was > 200 µM in each case.
